Patent publication US20230357179A1, “RAF KINASE INHIBITORS AND METHODS OF USE THEREOF” (Deciphera Pharmaceuticals, LLC, priority 2021, published 2023)

Tests used:
Assay type in all cases: cell-based
[1] = tested on: A375 cells; assay: A375 cell proliferation assay (1), resazurin, 96-well; settings: Homo sapiens, A-375, inhibition of cell proliferation
In short: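 Viability was read by resazurin fluorescence at 540 nm excitation and 600 nm emission, using a 440 μM solution added for 5–6 h at the end of culture. IC50 came from the curve fit.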

[2] = tested on: WM3928 cells; assay: WM3928 cell proliferation assay (1), resazurin, 96-well; settings: inhibition of cell proliferation
Procedure: WM3928 Cell Proliferation Assay (1)
WM3928 cells (#WM3928-01-0001) are obtained from Rockland Immunochemicals Inc (Gilbertsville, PA). Briefly, cells were grown in MCDB 153 medium (Sigma, #M7403, St. Louis, MO) supplemented with 20% Leibovitz's L-15 (ThermoFisher #11415-064, Waltham, MA), 2% heat inactivated fetal bovine serum (ThermoFisher, #A3840001, Waltham, MA), 5 μg/mL Insulin (Bovine Pancreas) (Sigma, #I0516, St. Louis, MO), 1.68 mM Calcium Chloride (Sigma, #C-34006, St. Louis, MO) and 1% Penicillin/Streptomycin/L-Glutamine (ThermoFisher #10378016, Waltham, MA) at 37° C., 5% CO2, and 95% humidity. Cells are expanded until reaching 70-95% confluency at which point they are subcultured or harvested for assay use. A serial dilution of test compound is dispensed into a 96-well black clear bottom plate in triplicate. Three thousand cells are added per well in 200 μL complete growth medium in the 96-well plate. Plates are incubated for 67-72 hours at 37° C., 5% CO2, and 95% humidity. At the end of the incubation, 40 μL of a 440 μM solution of resazurin (Sigma, #199303, St. Louis, MO) in PBS is added to each well of the plate and plates are incubated for an additional 6-7 hours at 37° C., 5% CO2, and 95% humidity. Plates are read on a Synergy2 or equivalent reader (Biotek, Winooski VT) using an excitation of 540 nm and an emission of 600 nm. Data is analyzed using Prism software (GraphPad, San Diego, CA) to calculate IC50 values.

[3] = tested on: H2405 cells; assay: H2405 cell proliferation assay (1), resazurin, 96-well; settings: Homo sapiens, NCI-H2405, inhibition of cell proliferation
Procedure: H2405 Cell Proliferation Assay (1)
H2405 cells (catalog #CRL-5944) are obtained from the American Type Culture Collect (ATTC, Manassas, VA). Briefly, cells were grown in RPMI 1640 supplemented with 5% characterized fetal bovine serum (Invitrogen, Carlsbad, CA) and 1% Penicillin/Streptomycin/L-Glutamine at 37° C., 5% CO2, and 95% humidity. Cells are expanded until reaching 70-95% confluency at which point they are subcultured or harvested for assay use. A serial dilution of test compound is dispensed into a 96-well black clear bottom plate in triplicate. Three thousand cells are added per well in 200 μL complete growth medium in the 96-well plate. Plates are incubated for 67-72 hours at 37° C., 5% CO2, and 95% humidity. At the end of the incubation, 40 μL of a 440 μM solution of resazurin (Sigma, St. Louis, MO) in PBS is added to each well of the plate and plates are incubated for an additional 5-6 hours at 37° C., 5% CO2, and 95% humidity. Plates are read on a Synergy2 or equivalent reader (Biotek, Winooski VT) using an excitation of 540 nm and an emission of 600 nm. Data is analyzed using Prism software (GraphPad, San Diego, CA) to calculate IC50 values.

[4] = tested on: Miapaca-2 cells; assay: MiaPaca-2 cell proliferation assay (1), resazurin, 96-well; settings: Homo sapiens, MIA PaCa-2, inhibition of cell proliferation
In short: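 Three thousand cells per well in DMEM with 10% FBS and 2.5% horse serum exposed to serially diluted compound in triplicate for 67-72 h at 37 °C, 5% CO2. Viability by resazurin (additional 5-6 h), fluorescence ex 540/em 600 nm; IC50 calculated.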

| IC50 [1] [nM] | IC50 [3] [nM] | IC50 [4] [nM] | Structure (SMILES) | IC50 [2] [nM] |
| --- | --- | --- | --- | --- |
| 1000 to 10000 | 1000 to 10000 | 1000 to 10000 | CNC(=O)c1cc(-c2cnnc(-c3cc(NC(=O)NCCC(C)(C)C)c(F)cc3C)c2)ccn1 [Example 119] | 1000 to 10000 |
| 1000 to 10000 | 1000 to 10000 | 1000 to 10000 | Cc1ncc(NC(=O)NCCC(C)(C)C)cc1-c1cc(-c2ccnc(NC(=O)C3CC3)c2)cnn1 [Example 120] | 1000 to 10000 |
| 500 to 1000 | 100 to 500 | 1000 to 10000 | Cc1ncc(NC(=O)NC2CC(C)(C)C2)cc1-c1cc(OCCO)nc(-c2ccnc(NC(=O)C3CC3)c2)n1 [Example 144] | 500 to 1000 |
| ≤ 100 | ≤ 100 | 1000 to 10000 | COC(=O)Nc1cc(-c2nc(OCCO)cc(-c3cc(NC(=O)NC4CC(C)(C)C4)c(F)cc3C)n2)ccn1 [Example 158] | ≤ 100 |
